Results from PMC6010098, “Synthesis, antitumour and antioxidant activities of novel α,β-unsaturated ketones and related heterocyclic analogues: EGFR inhibition and molecular modelling study” (Journal of Enzyme Inhibition and Medicinal Chemistry, 2018).

Tests used:
[1] = tested on: PC-3 cells; assay: MTT antitumour assay, PC-3; type: cell-based; conditions: PC-3; MTT; human prostate cancer cell line; mean ± SD, n = 3
Protocol: (§1) The evaluation of the antitumour activity was performed using tetrazolium salt MTT (3-(4,5-dimethyl-2-thiazolyl)-2,5-diphenyl-2H-tetrazolium bromide) assay as reported[62]^,[63].
(§2) The designed compounds were evaluated for their in vitro antitumour effects via the standard 3-(4,5-dimethylthiazol-2-yl)-2,5-diphenyltetrazolium bromide (MTT) method against a panel of four human tumour cell lines; namely, hepatocellular carcinoma cell line (HepG2), breast cancer cell line (MCF-7), human cervical cancer cell line (HeLa), and prostate cancer cell line (PC-3)[62]^,[63]^,[72]. The antitumour activities of the designed compounds 4–12, along with that of the reference drugs 5-FU and afatinib are shown in Table 1.

[2] = ABTS radical cation scavenging (antioxidant) assay; conditions: 20 µl of 1 mg/ml test sample (L-ascorbic acid 20 µl, 2 mM)
Protocol: The absorbance (Acontrol) of a green-blue solution (ABTS^+ radical solution) resulted from a mixture of ABTS and manganese dioxide (MnO2) and was recorded at λmax 734 nm, according to the reported procedure[64]^,[65]. The absorbance (Atest) was measured upon the addition of 20 µl of 1 mg/ml solution of the test sample in spectroscopic grade methanol/phosphate buffer (1:1 v/v) to the ABTS solution. The decrease in absorbance is expressed as % inhibition, which can be calculated from the following equation: % inhibition = Acontrol-Atest/Acontrol×100.
L-Ascorbic acid 20 µl (2 mM) solution was used as standard antioxidant (positive control). A blank sample was run using only methanol/phosphate buffer (1:1), while the negative control was run with ABTS and the methanol/phosphate buffer.
The assay is based on measuring the ability of the tested compounds to scavenge the long-life radical cation of ABTS[22]^,[43]^,[64]^,[65].

[3] = tested on: MCF-7 cells; assay: MTT antitumour assay, MCF-7; type: cell-based; conditions: MCF7, human breast adenocarcinoma cell line, mean ± SD, n = 3
Protocol: as §1, §2

[4] = tested on: HeLa cells; assay: MTT antitumour assay, HeLa; type: cell-based; conditions: human cervical epithelioid carcinoma cell line, mean ± SD, n = 3
Protocol: as §1
as §2, with “(PC-3)[62]^,[63]^,[72].” for “(PC-3)[62]^,[63]^,[72]. The antitumour activities of the designed compounds 4–12, along with that of the reference drugs 5-FU and afatinib are shown in Table 1.”

[5] = tested on: HepG2 cells; assay: MTT antitumour assay, HepG2; type: cell-based; conditions: human hepato-cellular carcinoma cell line, mean ± SD, n = 3
Protocol: as §1, §2

SMILES	IC50 [1] [µM]	%Inhibition of the ABTS radical cation [2] [%]	IC50 [3] [µM]	melting point [°C]	IC50 [4] [µM]	IC50 [5] [µM]
O=C(O)c1cc(C=Cc2ccc(OC3CCCC3)cc2)nc2ccc(F)cc12 [12b, 2-(4-(Cyclopentyloxy)styryl)-6-fluoroquinoline-4-carboxylicacid]	69.4 ± 4.32	50.0	48.1 ± 3.25	> 300	66.8 ± 4.07	30.8 ± 2.07
Cc1ccc(C2=NOC(c3ccc(OC4CCCC4)cc3)C2)cc1 (centres unmarked) [compound 9, 5-(4-(cyclopentyloxy)phenyl)-3-(4-methylphenyl)-4,5-dihydroisoxazole]	50.1 ± 3.55	60.0	58.4 ± 4.5	120 to 122	46.2 ± 3.3	62.3 ± 4.1
Cc1ccc(C2=NNC(c3ccc(OC4CCCC4)cc3)C2)cc1 (centres unmarked) [8a, 5-(4-(Cyclopentyloxy)phenyl)-3-(4-methylphenyl)-4,5-dihydro-1H-pyrazole]	12.7 ± 1.13	53.0	29.3 ± 1.97	145 to 146	16.2 ± 1.36	18.9 ± 1.35
Cc1ccc(-c2cc(-c3ccc(OC4CCCC4)cc3)c(C#N)c(=O)[nH]2)cc1 [compound 10, 4-(4-(cyclopentyloxy)phenyl)-2-oxo-6-(4-methylphenyl)-1,2-dihydropyridine-3-carbonitrile]	41.9 ± 2.87	–	70.9 ± 4.98	278 to 280	51.2 ± 3.82	80.9 ± 5.34
